Experimental data published in PubChem BioAssay AID256 (DTP/NCI, 2004).
Where “and” joins values, the source holds several entries; their conditions need not be identical. Equal entries are not always repeated. Toxic doses and inconclusive results are not listed.

Tested on: CD2F1 mice, L1210 leukemia ip, survival T/C
Experiment: NCI In Vivo Anticancer Drug Screen. Data for tumor model L1210 Leukemia (intraperitoneal) in CD2F1 (CDF1) mice
Settings: higher = longer survival
Outline: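 Tumor-bearing mice (transplanted tumor) were split into treated and vehicle control groups, and the measured endpoint of each treated group was divided by that of its vehicle controls.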

[1] = endpoint: mean survival time, dose: 50.0 mg/kg/injection, schedule: Q01DX009 (ip), vehicle: Klucel (hydroxypropylcellulose) (HPC)
[2] = endpoint: mean survival time, dose: 100.0 mg/kg/injection, schedule: Q01DX009 (ip), vehicle: saline with Tween-80
[3] = endpoint: mean survival time, dose: 100.0 mg/kg/injection, schedule: Q04DX003 (ip), vehicle: saline with Tween-80
[4] = endpoint: mean survival time, dose: 200.0 mg/kg/injection, schedule: Q01DX009 (ip), vehicle: saline with Tween-80
[5] = endpoint: mean survival time, dose: 200.0 mg/kg/injection, schedule: Q04DX003 (ip), vehicle: saline with Tween-80
[6] = endpoint: mean survival time, dose: 400.0 mg/kg/injection, schedule: Q01DX009 (ip), vehicle: saline with Tween-80
[7] = endpoint: mean survival time, dose: 75.0 mg/kg/injection, schedule: Q01DX001 (ip), vehicle: saline

With `CC(=O)Nc1ccccc1N` the T/C [1] was 100 % of control, the T/C (endpoint: mean survival time, dose: 100.0 mg/kg/injection, schedule: Q01DX009 (ip), vehicle: Klucel (hydroxypropylcellulose) (HPC)) was 94 % of control and the T/C (endpoint: mean survival time, dose: 200.0 mg/kg/injection, schedule: Q01DX009 (ip), vehicle: Klucel (hydroxypropylcellulose) (HPC)) was 103 % of control. The T/C (endpoint: mean survival time, dose: 400.0 mg/kg/injection, schedule: Q01DX009 (ip), vehicle: Klucel (hydroxypropylcellulose) (HPC)) was 107 % of control.
In the case of `CC1CNC(=S)S1` (centres undefined), the T/C [2] is reported as 94 % of control, the T/C [3] is reported as 97 % of control and the T/C [4] is reported as 109 % of control. For the same molecule, the T/C [5] was 94 % of control, the T/C [6] was 105 % of control and the T/C (endpoint: mean survival time, dose: 400.0 mg/kg/injection, schedule: Q04DX003 (ip), vehicle: saline with Tween-80) was 101 % of control.
For `Cn1cc(C2OC(CO)C(O)C2O)c(=O)[nH]c1=O` (centres undefined), the T/C (endpoint: mean survival time, dose: 12.5 mg/kg/injection, schedule: Q01DX005 (ip), vehicle: water) was 97 % of control, the T/C (endpoint: mean survival time, dose: 25.0 mg/kg/injection, schedule: Q01DX005 (ip), vehicle: water) was 103 % of control and the T/C (endpoint: mean survival time, dose: 50.0 mg/kg/injection, schedule: Q01DX005 (ip), vehicle: water) was 103 % of control. The T/C (endpoint: mean survival time, dose: 100.0 mg/kg/injection, schedule: Q01DX005 (ip), vehicle: water) was 100 % of control and the T/C (endpoint: mean survival time, dose: 200.0 mg/kg/injection, schedule: Q01DX005 (ip), vehicle: water) was 103 % of control.
With `OCCN1CCN(CCCN2c3ccccc3Sc3ccc(C(F)(F)F)cc32)CC1` the T/C (endpoint: mean survival time, dose: 1.49 mg/kg/injection, schedule: Q01DX009 (ip), vehicle: saline) was 110 % of control, the T/C (endpoint: mean survival time, dose: 2.27 mg/kg/injection, schedule: Q01DX009 (ip), vehicle: saline) was 113 % of control and the T/C (endpoint: mean survival time, dose: 3.4 mg/kg/injection, schedule: Q01DX009 (ip), vehicle: saline) was 121 % of control. For the same molecule, the T/C (endpoint: mean survival time, dose: 5.0 mg/kg/injection, schedule: Q04DX003 (ip), vehicle: saline) was 116 % of control, the T/C (endpoint: mean survival time, dose: 6.6 mg/kg/injection, schedule: Q04DX003 (ip), vehicle: saline sonified) was 100 % of control and the T/C (endpoint: mean survival time, dose: 6.6 mg/kg/injection, schedule: Q04DX003 (ip), vehicle: saline) was 108 % of control. For the same molecule, the T/C (endpoint: mean survival time, dose: 10.0 mg/kg/injection, schedule: Q04DX003 (ip), vehicle: saline sonified) was 101 % of control, the T/C (endpoint: mean survival time, dose: 10.0 mg/kg/injection, schedule: Q04DX003 (ip), vehicle: saline) was 116 % of control and the T/C (endpoint: mean survival time, dose: 15.0 mg/kg/injection, schedule: Q04DX003 (ip), vehicle: saline) was 114 % of control and 94 % of control. The T/C (endpoint: mean survival time, dose: 20.0 mg/kg/injection, schedule: Q04DX003 (ip), vehicle: saline) was 106 % of control and the T/C (endpoint: mean survival time, dose: 30.0 mg/kg/injection, schedule: Q04DX003 (ip), vehicle: saline) was 75 % of control.
In the case of `Nc1nc(=S)c2ncn(C3OC(CO)C4OC43)c2[nH]1` (centres undefined), the T/C [7] is reported as 101 % of control, the T/C (endpoint: mean survival time, dose: 150.0 mg/kg/injection, schedule: Q01DX001 (ip), vehicle: saline) is reported as 98 % of control and the T/C (endpoint: mean survival time, dose: 300.0 mg/kg/injection, schedule: Q01DX001 (ip), vehicle: saline) is reported as 97 % of control.
With `CCCCC(=O)n1c(Cl)c(/C=N\NC(N)=S)c2ccccc21` the T/C (endpoint: mean survival time, dose: 25.0 mg/kg/injection, schedule: Q04DX003 (ip), vehicle: saline with Tween-80) was 101 % of control, the T/C (endpoint: mean survival time, dose: 50.0 mg/kg/injection, schedule: Q04DX003 (ip), vehicle: saline with Tween-80) was 101 % of control and the T/C [3] was 108 % of control.
For `Nc1nc(Cl)c2[nH]cnc2n1`, the T/C (endpoint: mean survival time, dose: 13.3 mg/kg/injection, schedule: Q01DX009 (ip), vehicle: saline with Tween-80) was 153 % of control, the T/C (endpoint: mean survival time, dose: 44.0 mg/kg/injection, schedule: Q01DX009 (ip), vehicle: saline with Tween-80) was 151 % of control and 154 % of control and the T/C (endpoint: mean survival time, dose: 60.0 mg/kg/injection, schedule: Q04DX003 (ip), vehicle: saline with Tween-80) was 181 % of control. The T/C (endpoint: mean survival time, dose: 66.0 mg/kg/injection, schedule: Q01DX009 (ip), vehicle: saline with Tween-80) was 100 % of control, the T/C (endpoint: mean survival time, dose: 75.0 mg/kg/injection, schedule: Q04DX003 (ip), vehicle: saline with Tween-80) was 160 % of control and the T/C (endpoint: mean survival time, dose: 88.0 mg/kg/injection, schedule: Q01DX009 (ip), vehicle: saline with Tween-80) was 116 % of control. The T/C [2] was 111 % of control, the T/C (endpoint: mean survival time, dose: 132.0 mg/kg/injection, schedule: Q01DX009 (ip), vehicle: saline with Tween-80) was 113 % of control and the T/C (endpoint: mean survival time, dose: 150.0 mg/kg/injection, schedule: Q01DX009 (ip), vehicle: saline with Tween-80) was 86 % of control. For the same molecule, the T/C (endpoint: mean survival time, dose: 150.0 mg/kg/injection, schedule: Q04DX003 (ip), vehicle: saline with Tween-80) was 156 % of control and 168 % of control, the T/C [5] was 122 % of control and the T/C (endpoint: mean survival time, dose: 300.0 mg/kg/injection, schedule: Q01DX009 (ip), vehicle: saline with Tween-80) was 111 % of control.
For `Cc1cn(C2CC(O)C(CO)O2)c(=O)nc1N1CCCC1` (centres undefined), the T/C (endpoint: median survival time, dose: 12.5 mg/kg/injection, schedule: Q01DX005 (ip), vehicle: water) was 103 % of control, the T/C (endpoint: median survival time, dose: 25.0 mg/kg/injection, schedule: Q01DX005 (ip), vehicle: water) was 108 % of control and the T/C (endpoint: median survival time, dose: 50.0 mg/kg/injection, schedule: Q01DX005 (ip), vehicle: water) was 102 % of control. The T/C (endpoint: median survival time, dose: 100.0 mg/kg/injection, schedule: Q01DX005 (ip), vehicle: water) was 101 % of control and the T/C (endpoint: median survival time, dose: 200.0 mg/kg/injection, schedule: Q01DX005 (ip), vehicle: water) was 102 % of control.
With `CCC1(OC(=O)CN)C(=O)OCc2c1cc1n(c2=O)Cc2cc3ccccc3nc2-1` (centres undefined) the T/C (endpoint: median survival time, dose: 7.5 mg/kg/injection, schedule: Q04DX002 (ip), vehicle: saline) was 117 % of control and 122 % of control, the T/C (endpoint: median survival time, dose: 7.5 mg/kg/injection, schedule: Q04HX004 (iv), vehicle: dextrose) was 175 % of control and the T/C (endpoint: median survival time, dose: 7.5 mg/kg/injection, schedule: Q04HX004 (iv), vehicle: other) was 186 % of control. The T/C (endpoint: median survival time, dose: 15.0 mg/kg/injection, schedule: Q04HX004 (iv), vehicle: dextrose) was 172 % of control, the T/C (endpoint: median survival time, dose: 15.0 mg/kg/injection, schedule: Q04HX004 (iv), vehicle: other) was 204 % of control and the T/C (endpoint: median survival time, dose: 30.0 mg/kg/injection, schedule: Q04DX002 (ip), vehicle: saline) was 191 % of control and 213 % of control. For the same molecule, the T/C (endpoint: median survival time, dose: 30.0 mg/kg/injection, schedule: Q04HX004 (iv), vehicle: dextrose) was 226 % of control, the T/C (endpoint: median survival time, dose: 30.0 mg/kg/injection, schedule: Q04HX004 (iv), vehicle: other) was 219 % of control and the T/C (endpoint: median survival time, dose: 40.0 mg/kg/injection, schedule: Q04HX004 (iv), vehicle: other) was 217 % of control.
For `O=C(C=C(C(F)(F)F)C(F)(F)F)c1ccccc1Cl`, the T/C (endpoint: mean survival time, dose: 12.5 mg/kg/injection, schedule: Q01DX009 (ip), vehicle: saline with Tween-80) was 103 % of control and the T/C (endpoint: mean survival time, dose: 25.0 mg/kg/injection, schedule: Q01DX009 (ip), vehicle: saline with Tween-80) was 102 % of control.
In the case of `CCCC1NNC(CCC)NN1` (centres undefined), the T/C [7] is reported as 102 % of control.
`O=[N+]([O-])c1ccc(S(=O)(=O)F)c(Cl)c1` was tested, and the T/C [2] was 100 % of control, the T/C (endpoint: mean survival time, dose: 100.0 mg/kg/injection, schedule: Q04DX003 (ip), vehicle: saline) was 100 % of control and the T/C [4] was 100 % of control. The T/C (endpoint: mean survival time, dose: 200.0 mg/kg/injection, schedule: Q04DX003 (ip), vehicle: saline) was 101 % of control, the T/C [6] was 100 % of control and the T/C (endpoint: mean survival time, dose: 400.0 mg/kg/injection, schedule: Q04DX003 (ip), vehicle: saline) was 101 % of control.
`C/C(=N/NC(=O)c1ccccc1)c1ccc(Cl)cc1Cl` was tested, and the T/C [1] was 89 % of control.
In the case of `COC1CC(CC2CCC(C)C(C(C)C(=O)O)O2)OC2(OC(C)(C3CCC(C)(C4OC(C5OC(O)(CO)C(C)CC5C)CC4C)O3)CC2C)C1C` (centres undefined), the T/C (endpoint: mean survival time, dose: 0.31 mg/kg/injection, schedule: Q01DX009 (ip), vehicle: Klucel (hydroxypropylcellulose) (HPC)) is reported as 92 % of control, the T/C (endpoint: mean survival time, dose: 0.63 mg/kg/injection, schedule: Q01DX009 (ip), vehicle: Klucel (hydroxypropylcellulose) (HPC)) is reported as 106 % of control and the T/C (endpoint: mean survival time, dose: 1.25 mg/kg/injection, schedule: Q01DX009 (ip), vehicle: Klucel (hydroxypropylcellulose) (HPC)) is reported as 110 % of control. The T/C (endpoint: mean survival time, dose: 2.5 mg/kg/injection, schedule: Q01DX009 (ip), vehicle: Klucel (hydroxypropylcellulose) (HPC)) was 106 % of control.
For `CC1CNC(Cl)O1` (centres undefined), the T/C [3] was 87 % of control and the T/C [5] was 105 % of control.
`CC(C)[Si]1(C(C)C)OCC2OC(c3cn(C)c(=O)n(C)c3=O)C(OC(=S)n3ccnc3)C2O[Si](C(C)C)(C(C)C)O1` (centres undefined) was tested, and the T/C (endpoint: median survival time, dose: 12.5 mg/kg/injection, schedule: Q01DX005 (ip), vehicle: distilled water + Tween-80) was 98 % of control, the T/C (endpoint: median survival time, dose: 25.0 mg/kg/injection, schedule: Q01DX005 (ip), vehicle: distilled water + Tween-80) was 98 % of control and the T/C (endpoint: median survival time, dose: 50.0 mg/kg/injection, schedule: Q01DX005 (ip), vehicle: distilled water + Tween-80) was 92 % of control. For the same molecule, the T/C (endpoint: median survival time, dose: 100.0 mg/kg/injection, schedule: Q01DX005 (ip), vehicle: distilled water + Tween-80) was 92 % of control and the T/C (endpoint: median survival time, dose: 200.0 mg/kg/injection, schedule: Q01DX005 (ip), vehicle: distilled water + Tween-80) was 92 % of control.
